Data from patent US9573920B2, “Compound, medicine, anti-inflammatory, cosmetic, food and drink, and method for producing compound” (Amino Up Chemical Co., Ltd., priority 2013, dated 2017).

Assays:
rat liver cells = assay: LDH activity of medium (cytotoxicity); assay type: cell-based; details: IL-1β 1 nM plus Pa5, 8 hours
Method: Further, lactate dehydrogenase (LDH) activity was measured to investigate the cytotoxicity of Pa5. The lactate dehydrogenase (LDH) activity of each medium was measured using LDH Cytotoxicity Detection Kits (Takara Bio Inc.). LDH is an enzyme existing in a cell, and therefore migrates into a medium due to cell damage. Each medium was collected 8 hours after the addition of IL-1β, and Pa5 or negletein, and was used for measuring the activity. Actually, each sample (50 μl of medium) and Solution C (50 μl) in the kit were mixed and left standing at room temperature for 30 minutes, 1 M hydrochloric acid (25 μl) was added to stop the reaction, and the absorbance of the resultant at 490 nm was measured and compared with a calibration curve using LDH of known concentration to determine the LDH activity. The LDH activity of the whole cells on one dish (that is, whole-cell extract) was considered to be a positive control (positive control in FIG. 3), and was regarded as 100%. The medium was removed from each dish containing the liver cells, the cells were washed three times with phosphate buffered saline (PBS), then ultrasonically broken, and centrifuged at 10000×g for 3 minutes to then obtain a supernatant, which was used as a whole-cell extract, and the LDH activity of the cells was measured.

[1] = system: VEGF (VEGF-A/Vasculotropin); assay: cytokine/chemokine array (in vitro), VEGF; assay type: cell-based, rat; details: (+) IL-1β 1 nM, Pa5 20 μM
Method: (§1) In like manner with Example 4, liver cells were isolated from male Wistar rats by a collagenase perfusion method. The isolated liver cells were suspended in a medium (similar to that in Example 4) at 1.2×10^6 cells/mL, seeded in 35 mm plastic dishes (similar to those in Example 4) (1 mL/dish), and cultured in an incubator with 5% CO2 at 37° C. After 5 hours, the medium was replaced with fresh WE free of any serum and hormone, and the cells were cultured overnight until before use of the cells for an experiment.
(§2) On day 1 after the start of the culture, cells were subjected to replacement with fresh WE free of any serum and hormone, and IL-1β (similar to that in Example 4), and Pa5 extracted with methanol in Example 1 or Pa5′ extracted with methanol in Example 2 were added to the medium. The concentrations of IL-1β, Pa5, and Pa5′ in each medium were 1 nM, 20 μM, and 100 μM, respectively (Table 1). Then, the cells were cultured at 37° C., and the medium was collected 3 hours after the start of the culture. The collected medium was centrifuged for 1 minute at 5000 rpm to remove cellular debris, and the supernatant was used in an assay. The supernatant was preserved at −80° C. until performing the assay.
(§3) The productions of the various inflammatory cytokines/chemokines were measured according to an accompanying protocol using Rat Cytokine Antibody Array (R&D Systems) (http://www.rndsystems.com/product_detail_objectname_ratcytokinearray.aspx) capable of detecting 29 kinds of cytokines/chemokines in Proteome Profiler® Antibody Array. In the measurement, 1 mL of the supernatant of the medium obtained as described above was used.
(§4) In the above-described method, the 29 kinds of the cytokines/chemokines can be detected at once, and chemiluminescence on the filter of Proteome Profiler Antibody Array increases in proportion to the amount of each cytokine/chemokine. Thus, the chemiluminescence on the filter of Proteome Profiler Antibody Array was detected with LAS3000mini (GE Healthcare), subjected to densitometry analysis, and converted into a numeric value. The densitometry analysis was carried out with reference to http://www.hm6.aitai.ne.jp/˜maxcat/imageJ/technique.html#gels (the heading of “Analyzing Electrophoretic Gels”) using ImageJ software.

Fractalkine (CX3CL1) = assay: cytokine/chemokine array (in vitro), Fractalkine; assay type: cell-based, rat; details: (+) IL-1β 1 nM, Pa5 20 μM
Method: as §1, §2, §3, §4

MIG (CXCL9) = assay: cytokine/chemokine array (in vitro), MIG; assay type: cell-based, rat; details: (+) IL-1β 1 nM, Pa5 20 μM
Method: as §1, §2, §3, §4

sICAM-1 (CD54) = assay: cytokine/chemokine array (in vitro), sICAM-1; assay type: cell-based, rat; details: (+) IL-1β 1 nM, Pa5 20 μM
Method: as §1, §2, §3, §4

IL-17 = assay: cytokine/chemokine array (in vitro), IL-17; assay type: cell-based, rat; details: (+) IL-1β 1 nM, Pa5 20 μM
Method: as §1, §2, §3, §4

[2] = system: various inflammatory cytokines/chemokines; assay: cytokine/chemokine arrays (in vitro), overall; assay type: cell-based; details: rat liver cells, IL-1β 1 nM, Pa5 20 μM, 3 hours
Method: In like manner with Example 4, liver cells were isolated from male Wistar rats by a collagenase perfusion method. The isolated liver cells were suspended in a medium (similar to that in Example 4) at 1.2×10^6 cells/mL, seeded in 35 mm plastic dishes (similar to those in Example 4) (1 mL/dish), and cultured in an incubator with 5% CO2 at 37° C. After 5 hours, the medium was replaced with fresh WE free of any serum and hormone, and the cells were cultured overnight until before use of the cells for an experiment. […]
The productions of the various inflammatory cytokines/chemokines were measured according to an accompanying protocol using Rat Cytokine Antibody Array (R&D Systems) (http://www.rndsystems.com/product_detail_objectname_ratcytokinearray.aspx) capable of detecting 29 kinds of cytokines/chemokines in Proteome Profiler® Antibody Array. […]
In the above-described method, the 29 kinds of the cytokines/chemokines can be detected at once, and chemiluminescence on the filter of Proteome Profiler Antibody Array increases in proportion to the amount of each cytokine/chemokine. Thus, the chemiluminescence on the filter of Proteome Profiler Antibody Array was detected with LAS3000mini (GE Healthcare), subjected to densitometry analysis, and converted into a numeric value. […]

CINC-2α/β = assay: cytokine/chemokine array (in vitro), CINC-2α/β; assay type: cell-based, rat; details: (+) IL-1β 1 nM, Pa5 20 μM
Method: as §1, §2, §3, §4

[3] = system: nitrogen monoxide (NO) production due to IL-1β; assay: NO production inhibitory action in IL-1β-stimulated rat liver cells (Griess method); assay type: cell-based; details: IL-1β 1 nM, 8 hours
Method: Liver cells were isolated from male Wistar rats (200 to 250 g, Charles River) by a collagenase perfusion method (collagenase: Wako Pure Chemicals). The isolated liver cells were suspended in a medium at 6×10^5 cells/mL, seeded in 35 mm plastic dishes (Falcon Plastic) (2 mL/dish), and cultured in an incubator with 5% CO2 at 37° C. Williams' Medium E (WE) containing 10% newborn calf serum, HEPES (5 mM), penicillin (100 U/mL), streptomycin (0.1 mg/mL), dexamethasone (10 nM), and insulin (10 nM) was used as the medium. After 5 hours, the medium was replaced with fresh WE free of any serum and hormone, and the cells were cultured overnight until before use of the cells for an experiment.
On day 1 after the start of the culture, cells were subjected to replacement with fresh WE free of any serum and hormone, and recombinant rat IL-1β (purity of 97% or more) (PeproTech, Rocky Hill, N.J., USA), and Pa5 extracted with methanol in Example 1 or negletein in the comparative example were added to the medium. In each medium, the concentration of IL-1β was 1 nM, the concentrations of Pa5 were 5, 10, and 20 μM, and the concentrations of negletein were 10, 20, and 40 μM (FIG. 1). The amount of NO in each medium was measured 8 hours after the addition of IL-1β, and Pa5 or negletein by a Griess method (Green L C et al, Anal Biochem 1982; 126: 131-138). More specifically, the amount of nitrite (stable metabolite of NO) in each medium was measured.
Liver cells originated from rats were cultured in like manner with Example 4. On day 1 after the start of the culture, the cells were subjected to replacement with fresh WE free of any serum and hormone, and recombinant rat IL-1β (similar to that in Example 4) and Pa9 extracted with methanol in Example 3 were added to the medium. In each medium, the concentration of IL-1β was 1 nM, and the concentrations of Pa9 were 10 μM, 50 μM, and 100 μM (FIG. 5). The amount of NO in each medium was measured 8 hours after the addition of IL-1β and Pa9 in like manner with Example 4.

Thymus Chemokine (CXCL7) = assay: cytokine/chemokine array (in vitro), Thymus Chemokine; assay type: cell-based, rat; details: (+) IL-1β 1 nM, Pa5 20 μM
Method: as §1, §2, §3, §4

CINC-3 = assay: cytokine/chemokine array (in vitro), CINC-3; assay type: cell-based, rat; details: (+) IL-1β 1 nM, Pa5 20 μM
Method: as §1, §2, §3, §4

COc1cc2c(c(O)c1OC)OC(c1ccccc1)CC2=O (centres unmarked) [Pa5, 8-hydroxy-6,7-dimethoxyflavanone]
LDH activity of medium (rat liver cells): equivalent to that in the case of adding IL-1β
cytotoxicity (from LDH activity) (rat liver cells): no cytotoxicity
VEGF (VEGF-A/Vasculotropin) (%) ([1]; 3 hours, (+) alone = 100.0): 29.0%
VEGF (VEGF-A/Vasculotropin) chemiluminescence densitometry, Average ([1]; medium at 3 hours): 236.8
VEGF (VEGF-A/Vasculotropin) chemiluminescence densitometry, first value ([1]; medium at 3 hours): 241.4
VEGF (VEGF-A/Vasculotropin) chemiluminescence densitometry, second value ([1]; medium at 3 hours): 232.3
Fractakine (CX3CL1) (%) (Fractalkine (CX3CL1); 3 hours, (+) alone = 100.0): 0.0%
Fractakine (CX3CL1) chemiluminescence densitometry, Average (Fractalkine (CX3CL1); medium at 3 hours): 0.0
Fractakine (CX3CL1) chemiluminescence densitometry, first value (Fractalkine (CX3CL1); medium at 3 hours): 0.0
Fractakine (CX3CL1) chemiluminescence densitometry, second value (Fractalkine (CX3CL1); medium at 3 hours): 0.0
MIG (CXCL9) (%) (MIG (CXCL9); 3 hours, (+) alone = 100.0): 0.0%
MIG (CXCL9) chemiluminescence densitometry, Average (MIG (CXCL9); medium at 3 hours): 0.0
MIG (CXCL9) chemiluminescence densitometry, first value (MIG (CXCL9); medium at 3 hours): 0.0
MIG (CXCL9) chemiluminescence densitometry, second value (MIG (CXCL9); medium at 3 hours): 0.0
sICAM-1 (CD54) (%) (sICAM-1 (CD54); 3 hours, (+) alone = 100.0): 0.0%
sICAM-1 (CD54) chemiluminescence densitometry, Average (sICAM-1 (CD54); medium at 3 hours): 0.0
sICAM-1 (CD54) chemiluminescence densitometry, first value (sICAM-1 (CD54); medium at 3 hours): 0.0
sICAM-1 (CD54) chemiluminescence densitometry, second value (sICAM-1 (CD54); medium at 3 hours): 0.0
IL-17 (%) (IL-17; 3 hours, (+) alone = 100.0): 0.0%
IL-17 chemiluminescence densitometry, Average (IL-17; medium at 3 hours): 0.0
IL-17 chemiluminescence densitometry, first value (IL-17; medium at 3 hours): 0.0
IL-17 chemiluminescence densitometry, second value (IL-17; medium at 3 hours): 0.0
induction of various cytokines/chemokines [2]: strongly inhibit
CINC-2α/β (%) (CINC-2α/β; 3 hours, (+) alone = 100.0): 2.8%
CINC-2α/β chemiluminescence densitometry, Average (CINC-2α/β; medium at 3 hours): 170.2
CINC-2α/β chemiluminescence densitometry, first value (CINC-2α/β; medium at 3 hours): 209.7
CINC-2α/β chemiluminescence densitometry, second value (CINC-2α/β; medium at 3 hours): 130.6
degree of NO production inhibitory action, comparison at the same addition concentration ([3]; 10 μM): higher than that of negletein
IC50 ([3]; nitrite by Griess method, read-out: IC50 value (drug concentration at NO production of 50%)): 9 µM
production of NO due to IL-1β ([3]; Pa5 5, 10, 20 μM): dose-dependently inhibited
Thymus Chemokine (CXCL7) (%) (Thymus Chemokine (CXCL7); 3 hours, (+) alone = 100.0): 0.0%
Thymus Chemokine (CXCL7) chemiluminescence densitometry, Average (Thymus Chemokine (CXCL7); medium at 3 hours): 0.0
Thymus Chemokine (CXCL7) chemiluminescence densitometry, first value (Thymus Chemokine (CXCL7); medium at 3 hours): 0.0
Thymus Chemokine (CXCL7) chemiluminescence densitometry, second value (Thymus Chemokine (CXCL7); medium at 3 hours): 0.0
CINC-3 (%) (CINC-3; 3 hours, (+) alone = 100.0): 0.6%
CINC-3 chemiluminescence densitometry, Average (CINC-3; medium at 3 hours): 17.1
CINC-3 chemiluminescence densitometry, first value (CINC-3; medium at 3 hours): 16.1
CINC-3 chemiluminescence densitometry, second value (CINC-3; medium at 3 hours): 18.1
